Data on 23 compounds can be found in US10640506B2, “Cyclobutyl substituted pyrrolopyridine and pyrrolopyrimidines derivatives as JAK inhibitors” (Incyte Corporation, priority 2010, dated 2020).

The target of experiment [1] is human JAK1 (a.a. 837-1142) (Homo sapiens, UniProt P23458). Description: In vitro JAK kinase assay (HTRF, phosphorylation of biotinylated peptide), JAK1. In kind it is biochemical. Conditions: Table F; 1 mM ATP. Summed up:
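Phosphorylation of a biotinylated peptide was run at room temperature for 1 hour using the N-terminally His-tagged JAK1 kinase domain (837-1142) from insect cells. After an EDTA stop, Eu-Py20 and SA-APC gave an HTRF read; values are binned potency ranges.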

Experiment [2] addresses T1, JAK2 (a.a. 828-1132) (Homo sapiens, UniProt O60674).
T1 construct: JAK2 (a.a. 828-1132); His tag (N)
Description: In vitro JAK kinase assay (HTRF, phosphorylation of biotinylated peptide), JAK2. The experiment is classed as biochemical. As to conditions: Table F; 1 mM ATP. In outline:
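HTRF detection (Eu-Py20, SA-APC, 40 min) of biotinylated-peptide phosphorylation, following a 1 hour room-temperature reaction quenched with 45 mM EDTA. Enzymes: insect-cell-expressed N-terminal His-tagged JAK1 (837-1142) and JAK2 (828-1132) catalytic domains. Activities reported in ranged categories.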

pIC50: −log10 of the molar value. Where a name gives a salt, the structure may show the parent alone. Bounds are passed on as bounds.

Chain of human JAK1 (a.a. 837-1142) (P23458 849-1154): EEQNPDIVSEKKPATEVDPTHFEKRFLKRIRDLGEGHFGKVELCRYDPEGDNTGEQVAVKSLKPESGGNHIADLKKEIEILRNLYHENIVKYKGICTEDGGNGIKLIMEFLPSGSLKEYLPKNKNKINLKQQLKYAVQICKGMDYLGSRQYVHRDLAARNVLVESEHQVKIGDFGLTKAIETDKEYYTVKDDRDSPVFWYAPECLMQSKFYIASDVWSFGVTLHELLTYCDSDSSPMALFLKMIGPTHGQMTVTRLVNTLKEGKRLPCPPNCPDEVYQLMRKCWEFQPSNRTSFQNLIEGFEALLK
T1 sequence (O60674 828-1132): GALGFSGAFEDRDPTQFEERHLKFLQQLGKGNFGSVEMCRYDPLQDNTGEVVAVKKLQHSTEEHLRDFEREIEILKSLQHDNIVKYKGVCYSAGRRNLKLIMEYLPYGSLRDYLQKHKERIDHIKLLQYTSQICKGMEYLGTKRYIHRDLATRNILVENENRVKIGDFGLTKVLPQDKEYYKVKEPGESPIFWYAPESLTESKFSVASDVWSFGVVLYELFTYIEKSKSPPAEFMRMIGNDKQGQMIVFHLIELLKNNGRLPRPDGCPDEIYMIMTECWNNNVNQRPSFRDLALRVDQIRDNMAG

For the compound `N#CC[C@]1(n2cc(-c3ncnc4[nH]ccc34)cn2)C[C@H](N2CCN(C(=O)N[C@@H]3CCOC3)CC2)C1` [Example 87, 4-{trans-3-(cyanomethyl)-3-[4-(7H-pyrrolo[2,3-d]pyrimidin-4-yl)-1H-pyrazol-1-yl]cyclobutyl}-N-[(3R)-tetrahydrofuran-3-yl]piperazine-1-carboxamide], the figures for the pIC50 in experiment [1] and in experiment [2] were 7.60 to 8.00 and less than 7.00, respectively.
Consider `N#CC[C@]1(n2cc(-c3ncnc4[nH]ccc34)cn2)C[C@H](N2CCN(C(=O)NC3CCCC3)CC2)C1` [Example 90, 4-{trans-3-(cyanomethyl)-3-[4-(7H-pyrrolo[2,3-d]pyrimidin-4-yl)-1H-pyrazol-1-yl]cyclobutyl}-N-cyclopentylpiperazine-1-carboxamide], for which the negative logarithm of the IC50 (pIC50) in experiment [1] was more than 8.00; in experiment [2], 7.60 to 8.00.
Taken in the same sequence, the figures for `N#CC[C@]1(n2cc(-c3ncnc4[nH]ccc34)cn2)C[C@H](N2CCN(C(=O)N3CC[C@H](O)C3)CC2)C1` [Example 91, {trans-3-(4-{[(3S)-3-hydroxypyrrolidin-1-yl]carbonyl}piperazin-1-yl)-1-[4-(7H-pyrrolo[2,3-d]pyrimidin-4-yl)-1H-pyrazol-1-yl]cyclobutyl}acetonitrile] were 7.00 to 7.60 and less than 7.00.
On to `N#CC[C@]1(n2cc(-c3ncnc4[nH]ccc34)cn2)C[C@H](N2CCN(C(=O)NCC3CC3)CC2)C1` [Example 92, 4-{trans-3-(cyanomethyl)-3-[4-(7H-pyrrolo[2,3-d]pyrimidin-4-yl)-1H-pyrazol-1-yl]cyclobutyl}-N-(cyclopropylmethyl)piperazine-1-carboxamide trifluoroacetate salt], for which the figures for the negative-log IC50 (pIC50) in experiment [1] and in experiment [2] were more than 8.00 and 7.00 to 7.60, respectively.
For `CC(C)[C@@H](C)NC(=O)N1CCN([C@H]2C[C@](CC#N)(n3cc(-c4ncnc5[nH]ccc45)cn3)C2)CC1` [Example 93, 4-{trans-3-(cyanomethyl)-3-[4-(7H-pyrrolo[2,3-d]pyrimidin-4-yl)-1H-pyrazol-1-yl]cyclobutyl}-N-[(1R)-1,2-dimethylpropyl]piperazine-1-carboxamide], in that order: more than 8.00 and 7.00 to 7.60.
For `CC(C)[C@H](C)NC(=O)N1CCN([C@H]2C[C@](CC#N)(n3cc(-c4ncnc5[nH]ccc45)cn3)C2)CC1` [Example 94, 4-{trans-3-(cyanomethyl)-3-[4-(7H-pyrrolo[2,3-d]pyrimidin-4-yl)-1H-pyrazol-1-yl]cyclobutyl}-N-[(1S)-1,2-dimethylpropyl]piperazine-1-carboxamide], in that order: more than 8.00 and 7.00 to 7.60.
For `N#CC[C@]1(n2cc(-c3ncnc4[nH]ccc34)cn2)C[C@H](N2CCN(C(N)=O)CC2)C1` [Example 95, 4-{trans-3-(cyanomethyl)-3-[4-(7H-pyrrolo[2,3-d]pyrimidin-4-yl)-1H-pyrazol-1-yl]cyclobutyl}piperazine-1-carboxamide], in that order: more than 8.00 and 7.00 to 7.60.
Consider `C[C@H](NC(=O)N1CCN([C@H]2C[C@](CC#N)(n3cc(-c4ncnc5[nH]ccc45)cn3)C2)CC1)C1CC1` [Example 96, 4-{trans-3-(cyanomethyl)-3-[4-(7H-pyrrolo[2,3-d]pyrimidin-4-yl)-1H-pyrazol-1-yl]cyclobutyl}-N-[(1S)-1-cyclopropylethyl]piperazine-1-carboxamide], for which the negative-log IC50 (pIC50) is more than 8.00 in experiment [1] and 7.00 to 7.60 in experiment [2].
For `C[C@@H](NC(=O)N1CCN([C@H]2C[C@](CC#N)(n3cc(-c4ncnc5[nH]ccc45)cn3)C2)CC1)C1CC1` [Example 97, 4-{trans-3-(cyanomethyl)-3-[4-(7H-pyrrolo[2,3-d]pyrimidin-4-yl)-1H-pyrazol-1-yl]cyclobutyl}-N-[(1R)-1-cyclopropylethyl]piperazine-1-carboxamide], in that order: more than 8.00 and 7.00 to 7.60.
Taken in the same sequence, the figures for `N#CC[C@]1(n2cc(-c3ncnc4[nH]ccc34)cn2)C[C@H](N2CCN(C(=O)NC3CC3)CC2)C1` [Example 98, 4-{trans-3-(cyanomethyl)-3-[4-(7H-pyrrolo[2,3-d]pyrimidin-4-yl)-1H-pyrazol-1-yl]cyclobutyl}-N-cyclopropylpiperazine-1-carboxamide] were more than 8.00 and less than 7.00.
With `N#CC[C@]1(n2cc(-c3ncnc4[nH]ccc34)cn2)C[C@H](N2CCN(C(=O)NC3CCC3)CC2)C1` [Example 99, 4-{trans-3-(cyanomethyl)-3-[4-(7H-pyrrolo[2,3-d]pyrimidin-4-yl)-1H-pyrazol-1-yl]cyclobutyl}-N-cyclobutylpiperazine-1-carboxamide], the figures for the pIC50 in experiment [1] and in experiment [2] were more than 8.00 and 7.00 to 7.60, respectively.
With `CC(C)(C)CNC(=O)N1CCN([C@H]2C[C@](CC#N)(n3cc(-c4ncnc5[nH]ccc45)cn3)C2)CC1` [Example 100, 4-{trans-3-(cyanomethyl)-3-[4-(7H-pyrrolo[2,3-d]pyrimidin-4-yl)-1H-pyrazol-1-yl]cyclobutyl}-N-(2,2-dimethylpropyl)piperazine-1-carboxamide], the figures for the pIC50 in experiment [1] and in experiment [2] were 7.60 to 8.00 and less than 7.00, respectively.
As for `CC(C)CNC(=O)N1CCN([C@H]2C[C@](CC#N)(n3cc(-c4ncnc5[nH]ccc45)cn3)C2)CC1` [Example 101, 4-{trans-3-(cyanomethyl)-3-[4-(7H-pyrrolo[2,3-d]pyrimidin-4-yl)-1H-pyrazol-1-yl]cyclobutyl}-N-isobutylpiperazine-1-carboxamide], the pIC50 is more than 8.00 in experiment [1] and 7.00 to 7.60 in experiment [2].
Taken in the same sequence, the figures for `CC[C@@H](C)NC(=O)N1CCN([C@H]2C[C@](CC#N)(n3cc(-c4ncnc5[nH]ccc45)cn3)C2)CC1` [Example 102, 4-{trans-3-(cyanomethyl)-3-[4-(7H-pyrrolo[2,3-d]pyrimidin-4-yl)-1H-pyrazol-1-yl]cyclobutyl}-N-[(1R)-1-methylpropyl]piperazine-1-carboxamide] were more than 8.00 and 7.00 to 7.60.
Turning to `CC[C@H](C)NC(=O)N1CCN([C@H]2C[C@](CC#N)(n3cc(-c4ncnc5[nH]ccc45)cn3)C2)CC1` [Example 103, 4-{trans-3-(cyanomethyl)-3-[4-(7H-pyrrolo[2,3-d]pyrimidin-4-yl)-1H-pyrazol-1-yl]cyclobutyl}-N-[(1S)-1-methylpropyl]piperazine-1-carboxamide], the pIC50 in experiment [1] is more than 8.00; in experiment [2], 7.00 to 7.60.
For `N#CC[C@]1(n2cc(-c3ncnc4[nH]ccc34)cn2)C[C@@H](N2CCN(C(=O)NC3CCC3)CC2)C1` [Example 104, 4-{cis-3-(cyanomethyl)-3-[4-(7H-pyrrolo[2,3-d]pyrimidin-4-yl)-1H-pyrazol-1-yl]cyclobutyl}-N-cyclobutylpiperazine-1-carboxamide], in that order: 7.60 to 8.00 and less than 7.00.
For the compound `CC[C@@H](C)NC(=O)N1CCN([C@H]2C[C@@](CC#N)(n3cc(-c4ncnc5[nH]ccc45)cn3)C2)CC1` [Example 105, 4-{cis-3-(cyanomethyl)-3-[4-(7H-pyrrolo[2,3-d]pyrimidin-4-yl)-1H-pyrazol-1-yl]cyclobutyl}-N-[(1R)-1-methylpropyl]piperazine-1-carboxamide], the pIC50 in experiment [1] was 7.60 to 8.00; in experiment [2], 7.00 to 7.60.
For the compound `CC[C@H](C)NC(=O)N1CCN([C@H]2C[C@@](CC#N)(n3cc(-c4ncnc5[nH]ccc45)cn3)C2)CC1` [Example 106, 4-{cis-3-(cyanomethyl)-3-[4-(7H-pyrrolo[2,3-d]pyrimidin-4-yl)-1H-pyrazol-1-yl]cyclobutyl}-N-[(1S)-1-methylpropyl]piperazine-1-carboxamide], the pIC50 in experiment [1] was 7.60 to 8.00; in experiment [2] it was less than 7.00.
On to `N#CC[C@]1(n2cc(-c3ncnc4[nH]ccc34)cn2)C[C@@H](N2CCN(C(=O)NC3CC3)CC2)C1` [Example 107, 4-{cis-3-(cyanomethyl)-3-[4-(7H-pyrrolo[2,3-d]pyrimidin-4-yl)-1H-pyrazol-1-yl]cyclobutyl}-N-cyclopropylpiperazine-1-carboxamide], for which the pIC50 in experiment [1] was 7.60 to 8.00; in experiment [2], less than 7.00.
For `CC(C)NC(=O)N1CCN([C@H]2C[C@@](CC#N)(n3cc(-c4ncnc5[nH]ccc45)cn3)C2)CC1` [Example 108, 4-{cis-3-(cyanomethyl)-3-[4-(7H-pyrrolo[2,3-d]pyrimidin-4-yl)-1H-pyrazol-1-yl]cyclobutyl}-N-isopropylpiperazine-1-carboxamide], the pIC50 is 7.60 to 8.00 in experiment [1] and less than 7.00 in experiment [2].
For `N#CC[C@]1(n2cc(-c3ncnc4[nH]ccc34)cn2)C[C@@H](N2CCN(C(=O)NC3CCCC3)CC2)C1` [Example 109, 4-{cis-3-(cyanomethyl)-3-[4-(7H-pyrrolo[2,3-d]pyrimidin-4-yl)-1H-pyrazol-1-yl]cyclobutyl}-N-cyclopentylpiperazine-1-carboxamide], in that order: more than 8.00 and 7.00 to 7.60.
Turning to `CC(C)[C@@H](C)NC(=O)N1CCN([C@H]2C[C@@](CC#N)(n3cc(-c4ncnc5[nH]ccc45)cn3)C2)CC1` [Example 110, 4-{cis-3-(cyanomethyl)-3-[4-(7H-pyrrolo[2,3-d]pyrimidin-4-yl)-1H-pyrazol-1-yl]cyclobutyl}-N-[(1R)-1,2-dimethylpropyl]piperazine-1-carboxamide], the pIC50 in experiment [1] was more than 8.00; in experiment [2], less than 7.00.
For `CC(C)[C@H](C)NC(=O)N1CCN([C@H]2C[C@@](CC#N)(n3cc(-c4ncnc5[nH]ccc45)cn3)C2)CC1` [Example 111, 4-{cis-3-(cyanomethyl)-3-[4-(7H-pyrrolo[2,3-d]pyrimidin-4-yl)-1H-pyrazol-1-yl]cyclobutyl}-N-[(1S)-1,2-dimethylpropyl]piperazine-1-carboxamide], in that order: 7.60 to 8.00 and less than 7.00.
